Source: patent publication US8957093B2, “N-biphenylmethylindole modulators of PPARG” (The Scripps Research Institute, priority 2011, dated 2015)
Read-outs that look alike come from different tables or passages of the source.

Assays:
[1] = target: GST-PPARG-LBD (Homo sapiens (Human), UniProt P37231); test: Lanthascreen PPARG competitive binding assay (Invitrogen, TR-FRET); settings: NA = not active, inc = incomplete curve, read-out: IC50 (nM) Lantha
Method in brief: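 Values are fold change in 520 nm/490 nm FRET ratio relative to a 2% DMSO no-ligand control, excitation 340 nm. Compound dilutions starting at 10 μM competed against 5 nM Fluormone Pan-PPAR Green for GST-PPARG-LBD bound by 5 nM Tb anti-GST antibody. Incubation 2 h in the dark in assay buffer C, triplicate wells.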

[2] = target: Gal-4-PPAR (human PPAR LBD fused to GAL4 DNA-binding domain) (Homo sapiens (Human), UniProt P37231); test: GAL4-PPARG LBD / UAS-luciferase transactivation assay in HEK 293T cells; format: cell-based
[3] = Lanthascreen competitive binding
[4] = GAL4 transactivation, HEK 293T cells; NA = not active; read-out: EC50 (nM) GAL4
[5] = HEK-293T, 18 h; read-out: % transactivation at 10 μM (GAL4)
[6] = HEK-293T, 18 h, read-out: % transactivation at 10 μM (GAL4)
[7] = Lanthascreen PPARG competitive binding
[8] = GAL4 transactivation; read-out: EC50 (nM) GAL4

Sequence of GST-PPARG-LBD (P37231 238-503): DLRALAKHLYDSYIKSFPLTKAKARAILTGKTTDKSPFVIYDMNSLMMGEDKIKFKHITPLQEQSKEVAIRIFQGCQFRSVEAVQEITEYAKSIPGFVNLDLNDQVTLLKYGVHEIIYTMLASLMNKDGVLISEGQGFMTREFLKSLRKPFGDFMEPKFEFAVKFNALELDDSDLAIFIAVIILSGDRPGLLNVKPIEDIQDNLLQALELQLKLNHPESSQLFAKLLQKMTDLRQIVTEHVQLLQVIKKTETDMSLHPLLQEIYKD
Sequence of Gal-4-PPAR (human PPAR LBD fused to GAL4 DNA-binding domain) (P37231 238-503): as above

Row | IC50 [1, 3] [nM] | EC50 [2, 4] [nM] | activation at 10 µM [2, 6] [%] | Structure (SMILES) | activation at 10 µM [2, 5] [%] | IC50 [1, 7] [nM] | EC50 [2, 8] [nM]
1 | 3 | 37 | 30 | Cc1c(C)n(Cc2ccc(-c3ccccc3C(=O)O)cc2)c2ccc(C(=O)N[C@H](C)c3c(F)ccc(F)c3F)cc12 [Example 235, (R)-4′-((2,3-dimethyl-5-((1-(2,3,6-trifluorophenyl)ethyl)carbamoyl)-1H-indol-1-yl)methyl)-[1,1′-biphenyl]-2-carboxylic acid] | – | – | –
2 | 20 | 193 | – | Cc1c(C)n(Cc2ccc(-c3ccccc3C(=O)O)cc2)c2ccc(C(=O)N[C@@H](C)[C@H]3CCCN3C(=O)OCc3ccccc3)cc12 [Example 238, 4′-((5-(((S)-1-((R)-1-((benzyloxy)carbonyl)pyrrolidin-2-yl)ethyl)carbamoyl)-2,3-dimethyl-1H-indol-1-yl)methyl)-[1,1′-biphenyl]-2-carboxylic acid] | 55 | – | –
3 | 19 | 987 | 30 | Cc1c(C)n(Cc2ccc(-c3ccccc3C(=O)O)cc2)c2ccc(C(=O)NCc3ccc(F)cc3F)cc12 [Example 164, 4′-((5-((2,4-difluorobenzyl)carbamoyl)-2,3-dimethyl-1H-indol-1-yl)methyl)-[1,1′-biphenyl]-2-carboxylic acid] | – | – | –
4 | 28 | 4160 | – | Cc1c(C)n(Cc2ccc(-c3ccccc3C(=O)O)cc2)c2ccc(C(=O)N[C@@H](C)c3ccc(OC(F)(F)F)cc3)cc12 [Example 153, (S)-4′-((2,3-dimethyl-5-((1-(4-(trifluoromethoxy)phenyl)ethyl)carbamoyl)-1H-indol-1-yl)methyl)-[1,1′-biphenyl]-2-carboxylic acid] | 25 | – | –
5 | 12 | 455 | – | COc1cc(F)cc([C@H](C)NC(=O)c2ccc3c(c2)c(C)c(C)n3Cc2ccc(-c3ccccc3C(=O)O)cc2)c1 [Example 146, (S)-4′-((5-((1-(3-fluoro-5-methoxyphenyl)ethyl)carbamoyl)-2,3-dimethyl-1H-indol-1-yl)methyl)-[1,1′-biphenyl]-2-carboxylic acid] | 30 | – | –
6 | 17 | 169 | 15 | Cc1c(C)n(Cc2ccc(-c3ccccc3C(=O)O)cc2)c2ccc(C(=O)N[C@H](C)c3cc(F)ccc3C(F)(F)F)cc12 [Example 239, (R)-4′-((5-((1-(5-fluoro-2-(trifluoromethyl)phenyl)ethyl)carbamoyl)-2,3-dimethyl-1H-indol-1-yl)methyl)-[1,1′-biphenyl]-2-carboxylic acid] | – | – | –
7 | 10 | 189 | – | Cc1c(C)n(Cc2ccc(-c3ccccc3C(=O)O)cc2)c2ccc(C(=O)N[C@@H](C)c3cccc4c3OCO4)cc12 [Example 143, (S)-4′-((5-((1-(benzo[d][1,3]dioxol-4-yl)ethyl)carbamoyl)-2,3-dimethyl-1H-indol-1-yl)methyl)-[1,1′-biphenyl]-2-carboxylic acid] | 45 | – | –
8 | 5 | 180 | – | Cc1c(C)n(Cc2ccc(-c3ccccc3C(=O)O)cc2)c2ccc(C(=O)N[C@@H](C)c3ccc(F)cc3F)cc12 [Example 150, (S)-4′-((5-((1-(2,4-difluorophenyl)ethyl)carbamoyl)-2,3-dimethyl-1H-indol-1-yl)methyl)-[1,1′-biphenyl]-2-carboxylic acid] | 30 | – | –
9 | 2 | 55 | – | COc1cccc([C@@H](C)NC(=O)c2ccc3c(c2)c(C)c(C)n3Cc2ccc(-c3ccccc3C(=O)O)cc2)c1 [Example 161, (R)-4′-((5-((1-(3-methoxyphenyl)ethyl)carbamoyl)-2,3-dimethyl-1H-indol-1-yl)methyl)-[1,1′-biphenyl]-2-carboxylic acid] | 30 | – | –

The remaining lines, values behind:

Row | Structure (SMILES) | IC50 [1, 3] [nM] | EC50 [2, 4] [nM] | activation at 10 µM [2, 6] [%] | activation at 10 µM [2, 5] [%] | IC50 [1, 7] [nM] | EC50 [2, 8] [nM]
10 | CC[C@@H](NC(=O)c1ccc2c(ccn2Cc2ccccc2-c2ccc(C(=O)O)cc2)c1)c1ccccc1 [Example 190, (R)-2′-((5-((1-phenylpropyl)carbamoyl)-1H-indol-1-yl)methyl)-[1,1′-biphenyl]-4-carboxylic acid] | 5 | 51 | – | 45 | – | –
11 | Cc1c(C)n(Cc2ccc(-c3ccccc3C(=O)O)cc2)c2ccc(C(=O)N[C@@H](C)c3cccc4ccccc34)cc12 [Example 152, (S)-4′-((2,3-dimethyl-5-((1-(naphthalen-1-yl)ethyl)carbamoyl)-1H-indol-1-yl)methyl)-[1,1′-biphenyl]-2-carboxylic acid] | 256 | 766 | – | 17 | – | –
12 | Cc1c(C)n(Cc2ccc(-c3ccccc3C(=O)O)cc2)c2ccc(C(=O)N[C@@H](C)c3c(F)cncc3F)cc12 [Example 216, (S)-4′-((5-((1-(3,5-difluoropyridin-4-yl)ethyl)carbamoyl)-2,3-dimethyl-1H-indol-1-yl)methyl)-[1,1′-biphenyl]-2-carboxylic acid] | 33 | 884 | – | 30 | – | –
13 | Cc1c(C)n(Cc2ccc(-c3ccccc3C(=O)O)cc2)c2ccc(C(=O)N[C@H](C)C3COc4ccccc4O3)cc12 (stereo partly drawn) [Example 213, 4′-((5-(((1R)-1-(2,3-dihydrobenzo[b][1,4]dioxin-2-yl)ethyl)carbamoyl)-2,3-dimethyl-1H-indol-1-yl)methyl)-[1,1′-biphenyl]-2-carboxylic acid] | 3 | 672 | – | 40 | – | –
14 | Cc1c(C)n(Cc2ccc(-c3ccccc3C(=O)O)cc2)c2ccc(C(=O)N[C@@H](C)c3cc(Cl)cc(Cl)c3)cc12 [Example 219, (S)-4′-((5-((1-(3,5-dichlorophenyl)ethyl)carbamoyl)-2,3-dimethyl-1H-indol-1-yl)methyl)-[1,1′-biphenyl]-2-carboxylic acid] | 15 | 155 | – | 30 | – | –
15 | CC[C@@H](NC(=O)c1ccc2c(ccn2Cc2ccccc2-c2cccc(C(=O)O)c2)c1)c1ccccc1 [Example 192, (R)-2′-((5-((1-phenylpropyl)carbamoyl)-1H-indol-1-yl)methyl)-[1,1′-biphenyl]-3-carboxylic acid] | 4 | 27 | – | 40 | – | –
16 | COc1cc(C(F)(F)F)ccc1[C@@H](C)NC(=O)c1ccc2c(c1)c(C)c(C)n2Cc1ccc(-c2ccccc2C(=O)O)cc1 [Example 224, (R)-4′-((5-((1-(2-methoxy-4-(trifluoromethyl)phenyl)ethyl)carbamoyl)-2,3-dimethyl-1H-indol-1-yl)methyl)-[1,1′-biphenyl]-2-carboxylic acid] | 2 | 86 | – | 20 | – | –
17 | Cc1c(C)n(Cc2ccc(-c3ccccc3C(=O)O)cc2)c2ccc(C(=O)N[C@@H](C)c3ccc(C4CC4)nc3)cc12 [Example 263, (S)-4′-((5-((1-(6-cyclopropylpyridin-3-yl)ethyl)carbamoyl)-2,3-dimethyl-1H-indol-1-yl)methyl)-[1,1′-biphenyl]-2-carboxylic acid] | 59 | 3760 | – | 20 | – | –
18 | Cc1c(C)n(Cc2ccc(-c3ccccc3C(=O)O)cc2)c2ccc(C(=O)NC(C)c3cccc(C4CC4)n3)cc12 (stereo not drawn) [Example 272, 4′-((5-(1-(6-cyclopropylpyridin-2-yl)ethylcarbamoyl)-2,3-dimethyl-1H-indol-1-yl)methyl)biphenyl-2-carboxylic acid] | < 1 | 2 | – | 20 | – | –
19 | Cc1c(C)n(Cc2ccc(-c3ccccc3C(=O)O)cc2)c2ccc(C(=O)N[C@@H](C)c3ccc(C(F)(F)F)nc3)cc12 [Example 217, (S)-4′-((2,3-dimethyl-5-((1-(6-(trifluoromethyl)pyridin-3-yl)ethyl)carbamoyl)-1H-indol-1-yl)methyl)-[1,1′-biphenyl]-2-carboxylic acid] | 230 | 2800 | – | 15 | – | –
20 | Cc1c(C)n(Cc2ccc(-c3ccccc3C(=O)O)cc2)c2ccc(C(=O)N[C@@H](C)c3cc(C(F)(F)F)ccc3F)cc12 [Example 221, (S)-4′-((5-((1-(2-fluoro-5-(trifluoromethyl)phenyl)ethyl)carbamoyl)-2,3-dimethyl-1H-indol-1-yl)methyl)-[1,1′-biphenyl]-2-carboxylic acid] | 11 | 156 | – | 20 | – | –
21 | Cc1c(C)n(Cc2ccc(-c3ccccc3C(=O)O)cc2)c2ccc(C(=O)NC(C)c3cncc(Br)c3)cc12 (stereo not drawn) [Example 275, 4′-((5-(1-(5-bromopyridin-3-yl)ethylcarbamoyl)-2,3-dimethyl-1H-indol-1-yl)methyl)biphenyl-2-carboxylic acid] | – | – | – | 35 | 8 | 572
22 | Cc1c(C)n(Cc2ccc(-c3ccccc3C(=O)O)cc2)c2ccc(C(=O)N[C@@H](C)c3ccccc3Cl)cc12 [Example 159, (S)-4′-((5-((1-(2-chlorophenyl)ethyl)carbamoyl)-2,3-dimethyl-1H-indol-1-yl)methyl)-[1,1′-biphenyl]-2-carboxylic acid] | < 1 | 152 | 30 | – | – | –
23 | CNC(=O)c1ccccc1-c1ccc(Cn2c(C)c(C)c3cc(C(=O)N[C@@H](C)c4cccc(C(C)C)c4)ccc32)cc1 [Example 311, (S)—N-(1-(3-Isopropylphenyl)ethyl)-2,3-dimethyl-1-((2′-(methylcarbamoyl)-[1,1′-biphenyl]-4-yl)methyl)-1H-indole-5-carboxamide] | – | – | – | 10 | 76 | 441
